Source: publication PMC3265452 (PLoS Neglected Tropical Diseases, 2012)
Counter-ions that a name gives are not always drawn.

biological target: AaDOP2 (Aedes aegypti, UniProt H6D5H2); experiment: AaDOP2 antagonist screen of the LOPAC1280 library (HEK-CRELuc-Aadop2 cells, luminescence); assay type: cell-based; details: not given
Sequence (H6D5H2 1-476): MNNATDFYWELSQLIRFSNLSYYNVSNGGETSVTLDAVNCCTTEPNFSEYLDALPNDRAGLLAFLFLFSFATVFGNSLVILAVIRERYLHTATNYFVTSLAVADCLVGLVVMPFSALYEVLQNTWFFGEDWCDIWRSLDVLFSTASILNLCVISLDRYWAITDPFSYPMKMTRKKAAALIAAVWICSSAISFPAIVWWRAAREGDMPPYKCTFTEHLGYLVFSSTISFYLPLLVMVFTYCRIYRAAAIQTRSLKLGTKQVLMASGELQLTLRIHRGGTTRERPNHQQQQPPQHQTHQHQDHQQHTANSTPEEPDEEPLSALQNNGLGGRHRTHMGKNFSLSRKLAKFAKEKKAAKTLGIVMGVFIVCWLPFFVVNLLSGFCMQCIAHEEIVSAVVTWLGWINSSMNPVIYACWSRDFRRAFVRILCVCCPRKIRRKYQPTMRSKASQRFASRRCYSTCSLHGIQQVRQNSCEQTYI

Row | Compound | Compound effect (percent receptor signaling in presence of test compound, relative lux units relative to the SCH23390 control)
1 | C[N+]1(C)[C@@H]2CC[C@H]1C[C@@H](OC(=O)C(CO)c1ccccc1)C2 (stereo partly shown) [Compound 75, Atropine methyl bromide] | 105
2 | N[C@@H](CC(=O)O)C(=O)O [Compound 102, L-Aspartic acid] | 106
3 | CNCC(O)c1ccc(O)cc1 (racemic) [Compound 1077, (±)-Synephrine] | 88
4 | Nc1nc(OCc2ccccc2)c2nc[nH]c2n1 [Compound 163, O6-benzylguanine] | 80
5 | C[N+](C)(C)CCC(=O)c1cccc2ccccc12.[I-] [Compound 870, 2-(alpha-Naphthoyl)ethyltrimethylammonium iodide] | 74
6 | NC(N)=Nc1ccc2[nH]c3c(c2c1)C[C@@]1(O)[C@H]2Cc4ccc(O)c5c4[C@@]1(CCN2CC1CC1)[C@H]3O5.O=C(O)C(F)(F)F.O=C(O)C(F)(F)F [Compound 552, Guanidinyl-naltrindole di-trifluoroacetate] | 120
7 | O=S(=O)(c1cccc2c(Cl)cccc12)N1CCCNCC1 [Compound 229, ML-9] | 102
8 | COc1cccc(-c2cc(=O)c3ccccc3o2)c1N [Compound 1023, PD 98,059] | 94
9 | O=C1CC2(CCCC2)CC(=O)N1CCCCN1CCN(c2ncccn2)CC1 [Compound 183, Buspirone hydrochloride] | 83
10 | OCc1ccc(-c2nn(Cc3ccccc3)c3ccccc23)o1 [Compound 1275, YC-1] | 136
11 | COc1ccc2c(c1)c(CC(=O)N1CCOCC1)c(C)n2C(=O)c1ccc(Cl)cc1 [Compound 677, Indomethacin morpholinylamide] | 89
12 | COc1ccc(/C=C/C(=O)Nc2ccccc2C(=O)O)cc1OC [Compound 1144, Tranilast] | 73
13 | NCCCC(=O)O [Compound 33, GABA] | 102
14 | S=C=Nc1ccc2oc(C3=NCCN3)cc2c1 [Compound 611, BU99006] | 104
15 | O=S(=O)(NCCNC/C=C/c1ccc(Br)cc1)c1cccc2cnccc12 [Compound 158, H-89] | 46
16 | Cn1cc(C2=C(c3ccc(Cl)cc3Cl)C(=O)NC2=O)c2ccccc21 [Compound 910, SB 216763] | 80
17 | O=c1[nH]c2ccccc2c2ccccc12 [Compound 988, 6(5H)-Phenanthridinone] | 90
18 | [H]/N=C(/NC)NCCC[C@H](N)C(=O)O [Compound 795, NG-Monomethyl-L-arginine acetate] | 94
19 | Cc1cc(N)c2ccccc2[n+]1CCCCCCCCCC[n+]1c(C)cc(N)c2ccccc21 [Compound 378, Dequalinium dichloride] | 73
20 | C[C@]12CC[C@@H](O)C[C@@H]1CC[C@@H]1[C@@H]2CC[C@]2(C)[C@@H](C(=O)CO)CC[C@@H]12 [Compound 930, 3-alpha,21-Dihydroxy-5-alpha-pregnan-20-one] | 96
21 | CN1C(C)(C)CCCC1(C)C [Compound 950, Pempidine tartrate] | 100
22 | CCn1c(=O)[nH]c2cc(Cl)c(Cl)cc21 [Compound 428, DCEBIO] | 67
23 | COc1ccccc1N1CCN(CCCNc2cc(=O)n(C)c(=O)n2C)CC1 [Compound 1239, Urapidil hydrochloride] | 94
24 | O=c1onc2cnc3ccccc3n12 [Compound 904, ODQ] | 98
25 | CCCCCCC(C)(C)c1ccc([C@@H]2C[C@H](O)CC[C@H]2CCCO)c(O)c1 [Compound 227, CP55940] | 85

same assay, conditions: 10 µM compound, 300 nM dopamine, 2 hr; hit = compound effect <20

Row | Compound | Compound effect (percent receptor signaling in presence of test compound, relative lux units relative to the SCH23390 control)
26 | CCCN(CCc1ccccc1)C1CCc2c(O)cccc2C1.Cl (racemic) [Compound 1005, (±)-PPHT hydrochloride] | 73%
27 | C[C@H](Cc1ccc(OCC(=O)[O-])cc1)NC[C@H](O)c1cccc(Cl)c1.[Na+] [Compound 212, BRL 37344 sodium] | 87%
28 | Cl.NC[C@@H]1O[C@H](C23CC4CC(CC(C4)C2)C3)Cc2c1ccc(O)c2O [Compound 149, A-77636 hydrochloride] | 113%
29 | Cl.NCCCCCCNS(=O)(=O)c1cccc2c(Cl)cccc12 [Compound 40, W-7 hydrochloride] | 87%
30 | CCN1CCC[C@H]1CNC(=O)c1c(OC)ccc(I)c1O [Compound 675, S(-)-IBZM] | 85%
31 | CCCN1CCC[C@@H](c2cccc(C#N)c2)C1.Cl [Compound 469, S(-)-DS 121 hydrochloride] | 94%
32 | COc1ccc(CCN(C)CCCC(C#N)(c2cc(OC)c(OC)c(OC)c2)C(C)C)cc1OC.Cl (racemic) [Compound 782, (±)-Methoxyverapamil hydrochloride] | 88%
33 | C[C@]12CCC(=O)C=C1CC[C@@H]1[C@@H]2[C@@H](O)C[C@@]2(C)[C@H]1CC[C@]2(O)C(=O)COC(=O)CCC(=O)[O-].[Na+] [Compound 583, Hydrocortisone 21-hemisuccinate sodium] | 136%
34 | COc1ccccc1N1CCN(CCN(C(=O)C2CCCCC2)c2ccccn2)CC1.O=C(O)/C=C\C(=O)O [Compound 1267, WAY-100635 maleate] | 101%
35 | CC(=O)O.NC(=NCCC[C@H](N)C(=O)O)NO [Compound 598, NG-Hydroxy-L-arginine acetate] | 94%
36 | C#CC(N)CCC(=O)O (stereo not shown) [Compound 142, gamma-Acetylinic GABA] | 104%
37 | R(-)-Isoproterenol (+)-bitartrate [Compound 640] | 118%
